Measurements as given in ChEMBL document CHEMBL1201862, “PubChem BioAssay data set” (2004).
Calls of active or inactive are those of the source.

Key:
[1] = fluconazole-exposed Candida albicans growth modulators – fluorescence, retest, confirmation (AID 2467); assay type: functional, cell-based
CAAX prenyl protease 2 [2] = molecular target: T1, CAAX prenyl protease 2 (Saccharomyces cerevisiae S288c, UniProt Q03530); assay type: biochemical
T1 sequence (Q03530 whole entry): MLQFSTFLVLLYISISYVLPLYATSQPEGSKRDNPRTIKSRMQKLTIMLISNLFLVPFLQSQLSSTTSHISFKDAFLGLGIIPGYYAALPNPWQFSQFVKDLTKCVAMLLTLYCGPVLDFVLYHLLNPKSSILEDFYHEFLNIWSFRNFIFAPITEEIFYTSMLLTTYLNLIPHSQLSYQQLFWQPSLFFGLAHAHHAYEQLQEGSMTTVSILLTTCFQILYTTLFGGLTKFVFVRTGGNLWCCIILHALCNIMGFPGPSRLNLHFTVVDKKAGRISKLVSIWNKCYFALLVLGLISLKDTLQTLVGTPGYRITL

[3] = NIH-3T3 fibroblast cytotoxicity, dose response, cytotoxicity control, cell-based, fluorescence, Alamar Blue, secondary assay (AID 2327); assay type: functional;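 note: NIH-3T3 mouse fibroblasts cultured with fluconazole at 8 µg/mL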
[4] = molecular target: T2, Adenosylmethionine-8-amino-7-oxononanoate aminotransferase (Mycobacterium tuberculosis, UniProt P9WQ81); assay: Mycobacterium tuberculosis BioA enzyme inhibitor Measured in Biochemical System Using Plate Reader - 2163-02_Inhibitor_Dose_CherryPick_Activity.; assay type: functional, Mycobacterium tuberculosis UT205
T2 sequence (P9WQ81 whole entry): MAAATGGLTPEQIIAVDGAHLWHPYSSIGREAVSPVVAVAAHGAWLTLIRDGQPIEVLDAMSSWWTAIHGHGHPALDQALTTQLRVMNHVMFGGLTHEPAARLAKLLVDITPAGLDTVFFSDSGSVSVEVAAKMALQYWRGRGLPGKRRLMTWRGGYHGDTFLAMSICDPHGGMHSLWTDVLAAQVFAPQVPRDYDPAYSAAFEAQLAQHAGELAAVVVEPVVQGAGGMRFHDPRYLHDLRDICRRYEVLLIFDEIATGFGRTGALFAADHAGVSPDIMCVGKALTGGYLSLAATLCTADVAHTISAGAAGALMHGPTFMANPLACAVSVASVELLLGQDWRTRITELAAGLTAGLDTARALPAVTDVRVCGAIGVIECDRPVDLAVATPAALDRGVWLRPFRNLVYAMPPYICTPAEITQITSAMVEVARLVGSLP

CAAX prenyl protease 2 [5] = molecular target: T3, CAAX prenyl protease 2 (Homo sapiens, UniProt Q9Y256); assay: inhibition of Ras-converting CAAX protease Rce1 – biochemical, yeast membranes, quenched-peptide fluorescence, cherry-pick, dose response (AID 588849)
T3 sequence (Q9Y256 whole entry): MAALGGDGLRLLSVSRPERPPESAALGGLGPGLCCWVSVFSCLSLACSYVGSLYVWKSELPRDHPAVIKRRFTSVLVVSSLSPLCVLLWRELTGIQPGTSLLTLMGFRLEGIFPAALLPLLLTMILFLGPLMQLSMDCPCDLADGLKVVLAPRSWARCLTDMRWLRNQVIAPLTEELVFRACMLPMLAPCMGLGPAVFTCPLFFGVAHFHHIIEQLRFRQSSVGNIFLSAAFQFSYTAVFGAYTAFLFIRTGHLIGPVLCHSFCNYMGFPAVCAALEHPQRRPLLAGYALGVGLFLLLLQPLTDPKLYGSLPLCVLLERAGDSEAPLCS

Hexokinase = molecular target: T4, Hexokinase (Trypanosoma brucei, UniProt Q38C41); assay: Confirmation assay for inhibitors of Trypanosoma brucei hexokinase 1-Analogue-first series. [Related pubchem assays (depositor defined):AID1430, AID1632, AID2516, AID2560, AID2579, AID2600, AID449725, AID492951]; assay type: functional
T4 sequence (Q38C41 whole entry): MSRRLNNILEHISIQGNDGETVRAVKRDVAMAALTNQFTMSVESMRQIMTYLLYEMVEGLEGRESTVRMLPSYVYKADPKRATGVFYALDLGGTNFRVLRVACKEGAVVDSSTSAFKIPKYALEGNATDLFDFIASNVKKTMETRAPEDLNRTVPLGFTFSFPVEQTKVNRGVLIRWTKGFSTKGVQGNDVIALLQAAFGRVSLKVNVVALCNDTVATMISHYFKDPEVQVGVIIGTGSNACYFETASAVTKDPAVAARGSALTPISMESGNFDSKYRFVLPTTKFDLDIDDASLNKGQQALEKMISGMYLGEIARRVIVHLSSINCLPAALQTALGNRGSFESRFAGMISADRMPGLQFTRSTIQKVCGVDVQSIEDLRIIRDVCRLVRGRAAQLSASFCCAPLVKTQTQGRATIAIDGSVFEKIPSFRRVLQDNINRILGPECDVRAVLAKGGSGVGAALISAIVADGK

Protein RecA = molecular target: T5, Protein RecA (Mycobacterium tuberculosis, UniProt P9WHJ3); assay: Fluorescence Cell-Free Homogeneous Dose Retest to Identify Inhibitors of RecA-Intein Splicing Activity. [Related pubchem assays (depositor defined):AID2097, AID2223, AID489010, AID492950]; assay type: functional
T5 sequence (P9WHJ3 whole entry): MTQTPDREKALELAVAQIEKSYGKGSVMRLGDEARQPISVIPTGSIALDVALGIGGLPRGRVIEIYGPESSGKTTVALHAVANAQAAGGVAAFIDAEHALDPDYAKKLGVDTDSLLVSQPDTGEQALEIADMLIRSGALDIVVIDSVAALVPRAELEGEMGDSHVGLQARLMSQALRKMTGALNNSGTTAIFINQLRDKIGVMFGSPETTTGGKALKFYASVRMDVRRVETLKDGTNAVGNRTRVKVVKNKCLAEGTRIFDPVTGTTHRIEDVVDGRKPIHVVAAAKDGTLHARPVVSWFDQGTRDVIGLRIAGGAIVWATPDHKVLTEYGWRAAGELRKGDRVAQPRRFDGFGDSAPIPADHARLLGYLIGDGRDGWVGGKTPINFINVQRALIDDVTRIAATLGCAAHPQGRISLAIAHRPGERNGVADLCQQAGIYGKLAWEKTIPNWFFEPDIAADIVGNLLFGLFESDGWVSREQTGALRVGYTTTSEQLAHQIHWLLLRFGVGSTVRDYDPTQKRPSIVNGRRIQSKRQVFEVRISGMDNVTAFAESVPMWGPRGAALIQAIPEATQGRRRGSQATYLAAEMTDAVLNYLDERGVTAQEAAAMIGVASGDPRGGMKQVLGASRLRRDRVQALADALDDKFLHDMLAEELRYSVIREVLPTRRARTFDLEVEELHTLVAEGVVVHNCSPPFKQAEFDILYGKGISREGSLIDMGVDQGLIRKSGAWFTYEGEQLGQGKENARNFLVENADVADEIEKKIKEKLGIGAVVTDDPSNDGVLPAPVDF

[6] = Intein inhibitors as potential Tuberculosis drugs, a cytotoxicity screen. [Related pubchem assays (depositor defined):AID2221, AID2223, AID434968, AID435010, AID449749, AID449750, AID489010]; assay type: functional
[7] = molecular target: T6, Replicative DNA helicase DnaB (Mycobacterium tuberculosis, UniProt P9WMR3); assay: DnaB intein splicing inhibitors, dose response, biochemical, cell-free fluorescence (AID 449749); assay type: functional
T6 sequence (P9WMR3 whole entry): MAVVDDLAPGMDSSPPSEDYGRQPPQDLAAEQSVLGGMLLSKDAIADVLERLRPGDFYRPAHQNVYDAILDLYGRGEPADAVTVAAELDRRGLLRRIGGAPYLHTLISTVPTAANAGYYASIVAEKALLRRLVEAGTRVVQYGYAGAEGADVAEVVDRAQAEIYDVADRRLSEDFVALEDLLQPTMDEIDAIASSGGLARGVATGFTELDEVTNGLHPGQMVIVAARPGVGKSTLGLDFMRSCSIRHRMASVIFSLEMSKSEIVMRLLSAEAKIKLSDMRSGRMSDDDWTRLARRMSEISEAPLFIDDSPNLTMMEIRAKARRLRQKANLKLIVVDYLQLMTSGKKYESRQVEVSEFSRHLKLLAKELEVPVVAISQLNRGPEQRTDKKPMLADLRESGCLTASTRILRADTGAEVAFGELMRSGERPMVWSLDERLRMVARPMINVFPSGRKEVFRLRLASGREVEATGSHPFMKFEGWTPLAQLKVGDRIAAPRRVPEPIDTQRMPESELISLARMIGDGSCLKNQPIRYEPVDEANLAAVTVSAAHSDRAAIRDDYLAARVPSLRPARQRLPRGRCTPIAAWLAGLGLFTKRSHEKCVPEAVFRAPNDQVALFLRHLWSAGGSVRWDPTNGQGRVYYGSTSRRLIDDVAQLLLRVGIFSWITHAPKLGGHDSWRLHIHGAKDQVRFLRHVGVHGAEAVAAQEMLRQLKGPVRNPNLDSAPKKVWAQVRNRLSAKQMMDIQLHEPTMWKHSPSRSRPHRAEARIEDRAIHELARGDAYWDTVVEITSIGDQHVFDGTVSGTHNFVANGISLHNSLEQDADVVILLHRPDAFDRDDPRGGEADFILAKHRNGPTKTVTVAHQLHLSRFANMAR

[8] = viability loss of HPDE-C7K cells – cell-based, fluorescence, HTS, primary screen (AID 431); assay type: functional; conditions: Homo sapiens
[9] = HPDE-C7 pancreatic duct cell viability loss – fluorescence, HTS (AID 430); assay type: functional, cell-based; conditions: Homo sapiens
[10] = molecular target: T7, Short transient receptor potential channel 4 (Mus musculus, UniProt Q9QUQ5); assay: calcium entry via TRPC4 opening agents – cell-based, HEK293 TRPC4/mu-opioid, Fluo-4 calcium, dose response (AID 434937); assay type: functional
T7 sequence (Q9QUQ5 whole entry): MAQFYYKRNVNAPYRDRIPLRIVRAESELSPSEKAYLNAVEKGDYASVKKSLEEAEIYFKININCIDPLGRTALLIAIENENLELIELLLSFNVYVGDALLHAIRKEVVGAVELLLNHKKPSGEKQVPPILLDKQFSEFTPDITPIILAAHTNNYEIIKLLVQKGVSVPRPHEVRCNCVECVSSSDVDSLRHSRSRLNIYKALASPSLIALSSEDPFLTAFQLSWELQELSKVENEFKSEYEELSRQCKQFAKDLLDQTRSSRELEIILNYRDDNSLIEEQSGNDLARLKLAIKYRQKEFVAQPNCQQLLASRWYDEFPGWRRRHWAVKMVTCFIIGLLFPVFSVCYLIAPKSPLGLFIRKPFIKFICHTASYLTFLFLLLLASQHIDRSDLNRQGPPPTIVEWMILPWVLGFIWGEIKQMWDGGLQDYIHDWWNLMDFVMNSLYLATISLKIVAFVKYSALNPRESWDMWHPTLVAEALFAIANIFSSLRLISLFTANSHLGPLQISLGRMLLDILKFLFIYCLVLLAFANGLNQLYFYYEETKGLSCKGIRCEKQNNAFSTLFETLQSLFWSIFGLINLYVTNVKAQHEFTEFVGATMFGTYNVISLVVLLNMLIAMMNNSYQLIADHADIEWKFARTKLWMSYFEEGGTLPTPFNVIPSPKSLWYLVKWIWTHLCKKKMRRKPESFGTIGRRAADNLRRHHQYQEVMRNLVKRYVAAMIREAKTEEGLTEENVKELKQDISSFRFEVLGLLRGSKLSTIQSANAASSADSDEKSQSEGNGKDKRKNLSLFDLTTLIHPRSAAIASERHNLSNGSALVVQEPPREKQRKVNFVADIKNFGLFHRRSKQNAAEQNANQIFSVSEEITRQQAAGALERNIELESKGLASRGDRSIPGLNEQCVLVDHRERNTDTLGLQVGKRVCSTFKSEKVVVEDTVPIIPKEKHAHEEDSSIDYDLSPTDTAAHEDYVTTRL
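Throughout, for CC50: cells exposed to compound for 72 hours before luminescence readout.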

With `O=[N+]([O-])c1ccc(C[n+]2c(-c3ccccc3)cc(-c3ccccc3)cc2-c2ccccc2)cc1.[O-][Cl+3]([O-])([O-])[O-]` the EC50 [1] was 2.75 µM (active), the AC50 (CAAX prenyl protease 2 [2]) was 81.6 µM (active) and the EC50 [3] was 23.7 µM (active). The AC50 [4] was 4.55 µM (active) and the AC50 (CAAX prenyl protease 2 [5]) was 68.4 µM (active).
With `COc1ccc(C(=O)Nc2cc(Cl)c(Br)cc2C(=O)O)cc1` the IC50 (Hexokinase) was 4.59 µM (active).
For `COC(=O)c1sc(-c2ccc(Cl)cc2)cc1NC(=O)/C=C/C(=O)O`, the EC50 (Protein RecA) was 2.44 µM (active), the CC50 [6] was 24.2 µM (active) and the AC50 [7] was 4.02 µM (active).
In the case of `O=C(Cn1sc2ccccc2c1=O)Nc1ccccc1F`, the IC50 (Hexokinase) is reported as 5.8 µM (active).
With `CCCCN(CC)CCCNC(=O)Cn1nc(Cc2ccncc2)c2ccccc2c1=O` the EC50 [8] was > 20 µM (not active), the EC50 [9] was > 20 µM (not active) and the EC50 [10] was 0.168 µM (active).
